Measurements reported in US20030134901A1, “Lipoxin compounds and their use in treating cell proliferative disorders” (priority 1993, published 2003).

What was measured:
[1] = test system: PMA-treated HL-60 cells; experiment: Lipoxin metabolism / bio-half-life assay with phorbol ester-treated HL-60 cells; format: in vitro ADME, human; details: at times up to two hours
Protocol: HL-60 cells were purchased from American Type Culture Collection (Rockville, Md.), and other cell culture reagents were from GIBCO (Grand Island, N.Y.). Versene (EDTA) was from Whittaker Bioproducts (Walkersville, Md.). Synthetic 11,12-acetylenic LXA4 methyl ester and LXs were from Cascade Biochemical (Reading, U.K.). 15(S)-15-m-PGE1, PGE1, and 5-HETE were from Cayman Chemical Co. (Ann Arbor, Mich.). [11,12-^3H]LXA4 was prepared from 11,12-acetylenic LXA4 using Lindlar catalyst as a custom tritiation (NET-259, lot 0 2793-275, New England Nuclear, Boston, Mass.). Tritiated products were isolated using RP-HPLC (Fiore et al. (1992) J. Biol. Chem. 267:16168; Serhan, C. N. (1990) Meth. Enzymol. 187:167). Methoxyamine and NAD were from Sigma Chemical Company (St. Louis, Mo.). Manganese dioxide and Adams reagent were from Aldrich Chemical Co. (Milwaukee, Wis.).
Human PMN were obtained from healthy volunteers by gradient centrifugation of heparinized fresh venous blood (Böyum, A. ([…]) Scand. J. Clin. Lab. Invest. 21:77). HL-60 cells were seeded in RPMI supplemented with penicillin (100 U/ml), streptomycin (100 μ/ml), fetal bovine serum (10%) (Hyclone, Logan, Utah) and incubated (37° C. with 5% CO2 atmosphere) in plastic 250 ml flasks. Individual flasks containing […] HL-60 cells/ml were incubated in the presence or absence of phorbol 12-myristate 13-acetate (PMA) (10 or 16 nM, 24-27 h) and adherence was monitored for induction of macrophage-like phenotype as in Collins, S. J. (1987) Blood 70:1233. […]
Incubations with eicosanoids were stopped with cold methanol containing either PGB2 or 5-HETE as internal standards (5-HETE was used when 15-oxo-ETE was quantified). […] Formation of 15-oxo-ETE by 100,000 g supernatants (cf. Agins, A. P. et al. (1987) Agents Actions 21:397; Xun, C-Q. et al.(1991) Biochem. J. 279:553; and Sok, D-E. et al. (1988) Biochem. Biophys. Res. Commun. 156:524) was quantified after RP-HPLC using an ODS column (4.6 mm×25 cm) eluted with methanol/H2O/acetic acid (70:30:0.01, v/v/v) monitored at 280 nm with a flow rate of 1 ml/min. […] On-line spectra were recorded using a diode array detector (Hewlett-Packard 1040M series II) equipped with HPLC^3D ChemStation software (DOS series). […]
The “bio-half-life” of compounds 1-8 was assessed using phorbol ester-treated human promyelocytic leukemia (HL-60) cells as described in Example 2. […]

[2] = test system: neutrophil adhesion to endothelial cells; experiment: Neutrophil adhesion assay; format: cell-based; details: read-out: IC50, PMN adhesion triggered by LTB4 to human endothelial cells; triggered by leukotriene B4
Protocol: Several of the preferred LX analogs (shown structurally as compounds 1 through 8 above) were prepared by total synthesis as described in Example 1. Following preparation and isolation of these compounds via HPLC, compounds were first assessed to determine whether they retain biological activity using the neutrophil adhesion assay and epithelial cell transmigration assays (as described in Nash, S et al., (1987) J. Clin. Invest. 80:1104-1113; Nash, S et al., (1991) J. Clin. Invest. 87: 1474-1477; Parkos, C. A. et al., (1991) J. Clin. Invest. 88:1605-1612; Parkos, C. A. et al. (1992) J. Cell. Biol. 117:757-764; Madara J. L. et al., (1992) J. Tiss. Cult. Meth. 14:209-216).

## CCCCCC(C)(O)C=CC=CC=CC=CC(O)C(O)CCCC(=O)O (centres unmarked) [compound 2, 15-methyl-LXA4]
[1]
  recovery in the incubation medium (bio-half-life): quantitatively recovered
[2]
  IC50: ~1 nM
